This is an account of results in EP3981864A1, “DETERGENT COMPOSITION” (priority 2020, dated 2022).

Experiment [1] deals with Gossypium raimondii αDOX (SEQ ID NO: 5), fatty acid alpha-dioxygenase, A0A0D2W0W0, N-terminal His-tag variant SEQ ID NO: 257. In words: Alpha-dioxygenase activity assay (oxygen consumption, TON). In kind it is biochemical. Conditions: fatty acid 100 µM, enzyme 6 ppm, 50 mM HEPES pH 9.0, 37°C; initial rate of oxygen consumption / enzyme concentration. An excerpt: (§1) Gossypium raimondii αDOX (SEQ ID NO: 5) is a fatty acid alpha-dioxygenase that converts fatty acids into the corresponding 2-hydroperoxy fatty acids and is included as an example of the present invention. A codon optimized gene (SEQ ID NO: 256) encoding for an alpha-dioxygenase variant (SEQ ID NO: 257), including an N-terminal amino acid sequence containing a His-tag was designed and synthesized by Genscript. After gene synthesis, the protein was expressed and purified. In brief, the complete synthetic gene sequence was subcloned into a pET30a vector using the NdeI/HindIII cloning sites. For heterologous expression, Escherichia coli BL21 (DE3) cells were transformed with the recombinant plasmid and a single colony was inoculated into LB medium containing kanamycin (50 mg/L). A pre-starter culture was then inoculated into flasks containing Magic Media (Thermo Fisher, Catalog # K6803) supplemented with kanamycin (50 mg/L) and incubated at 16 °C for 72 h. At an OD600nm = 0.5 - 1.0, 5-aminolevulinic acid (final concentration 0.5 mM) was added. Cells were harvested by centrifugation at 5000 rpm and 4°C and the pellet was lysed using a bacterial cell lysis buffer (B-PER - Themo Fisher, Waltham, MA). After centrifugation, the supernatant was collected, and the protein was purified by one-step purification using HisPur™ Ni-NTA Spin Columns (Thermo Scientific, Catalog # 88226) and standard protocols known in the art. The protein was concentrated using a 10 kDa MW cutoff Amicon Ultra centrifugal filter unit (Millipore Sigma, Catalog# UFC901024), followed by desalting using a disposable PD-10 desalting column (GE Healthcare Life Sciences, Catalog# 17085101) and a buffer containing 50 mM Tris-HCl, 500 mM NaCl, and 10% Glycerol at pH 8.0. […]
(§2) Reactions with alpha-dioxygenases were performed as follows. […] The reaction was incubated for up to 10 minutes at 37°C with 200 rpm agitation and the conversion was monitored using an oxygen sensor. The TON (in s-1) were calculated as the ratio between the initial rate of oxygen consumption (in µM/s) and the concentration of enzyme (in µM). […]

In experiment [2] the target is T1, Nicotiana tabacum αDOX (SEQ ID NO: 6), fatty acid alpha-dioxygenase, 082031, N-terminal His-tag variant SEQ ID NO: 259 (Nicotiana tabacum, UniProt A0A1S3ZX38).
T1 construct: made in house; host or cells: Escherichia coli BL21 (DE3), pET30a
T1 sequence (A0A1S3ZX38 1-643): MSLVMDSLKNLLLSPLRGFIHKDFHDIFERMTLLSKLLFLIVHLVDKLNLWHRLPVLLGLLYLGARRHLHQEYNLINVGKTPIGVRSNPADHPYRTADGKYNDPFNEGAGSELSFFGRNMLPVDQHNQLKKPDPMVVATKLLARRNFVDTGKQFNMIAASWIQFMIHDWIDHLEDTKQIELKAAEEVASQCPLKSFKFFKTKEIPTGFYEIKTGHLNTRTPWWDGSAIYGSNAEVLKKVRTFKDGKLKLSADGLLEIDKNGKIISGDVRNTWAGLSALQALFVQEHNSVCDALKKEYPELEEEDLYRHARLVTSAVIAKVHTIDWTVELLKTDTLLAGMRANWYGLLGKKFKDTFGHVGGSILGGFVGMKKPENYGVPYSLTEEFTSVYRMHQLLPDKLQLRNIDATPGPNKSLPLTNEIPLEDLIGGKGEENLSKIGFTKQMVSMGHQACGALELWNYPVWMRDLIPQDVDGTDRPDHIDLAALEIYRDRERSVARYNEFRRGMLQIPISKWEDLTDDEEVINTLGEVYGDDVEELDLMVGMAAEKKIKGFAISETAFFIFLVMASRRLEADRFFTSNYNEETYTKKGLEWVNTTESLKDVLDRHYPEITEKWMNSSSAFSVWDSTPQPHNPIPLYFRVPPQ
Described as above. In kind it is biochemical. Conditions: fatty acid 100 µM, enzyme 6 ppm, 50 mM HEPES pH 9.0, 37°C; initial rate of oxygen consumption / enzyme concentration.
Excerpt: as §1, with “Nicotiana tabacum” for “Gossypium raimondii”, “6)” for “5)”, “258)” for “256)”, “259),” for “257),”
as §2

As to `CCCCCCCCCCCCCCCCCC(=O)O` [Stearic Acid], the “Stearic Acid, TON” value in experiment [1] came out at 1.68 s⁻¹; in experiment [2] it was 2.66 s⁻¹.

Take `CCCCCCCC/C=C\CCCCCCCC(=O)O` [Oleic Acid]: the “Oleic Acid, TON” value in experiment [1] worked out at 1.68 s⁻¹; in experiment [2] it was 0.78 s⁻¹.

`CCCCCCCCCCCCCCCC(=O)O` [Palmitic Acid]: the “Palmitic Acid, TON” value was found to be 2.56 s⁻¹ in experiment [1] and 3.07 s⁻¹ in experiment [2].
